Experimental data: PubChem BioAssay AID256 (DTP/NCI, 2004)
Where “and” joins values, the source holds several entries; their conditions need not be identical. Identical values can stand only once. Toxic doses and inconclusive results are not listed. Rule for the calls: active = survival T/C of 150% or more; inactive = T/C below 125% in these data.

Tested on: CD2F1 mice, L1210 leukemia ip, survival T/C
Assay: NCI In Vivo Anticancer Drug Screen. Data for tumor model L1210 Leukemia (intraperitoneal) in CD2F1 (CDF1) mice
Settings: higher = longer survival
In short: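 Each value reflects a quotient of treated over vehicle control outcomes in mice with a transplanted tumor.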

[1] = endpoint: mean survival time, dose: 100.0 mg/kg/injection, schedule: Q04DX003 (ip), vehicle: Klucel (hydroxypropylcellulose) (HPC)
[2] = endpoint: mean survival time, dose: 200.0 mg/kg/injection, schedule: Q04DX003 (ip), vehicle: Klucel (hydroxypropylcellulose) (HPC)
[3] = endpoint: mean survival time, dose: 100.0 mg/kg/injection, schedule: Q01DX009 (ip), vehicle: saline with Tween-80
[4] = endpoint: mean survival time, dose: 200.0 mg/kg/injection, schedule: Q01DX009 (ip), vehicle: saline with Tween-80
[5] = endpoint: mean survival time, dose: 400.0 mg/kg/injection, schedule: Q01DX009 (ip), vehicle: saline with Tween-80
[6] = endpoint: mean survival time, dose: 50.0 mg/kg/injection, schedule: Q01DX009 (ip), vehicle: saline
[7] = endpoint: mean survival time, dose: 100.0 mg/kg/injection, schedule: Q01DX001 (ip), vehicle: saline with Tween-80
[8] = endpoint: mean survival time, dose: 100.0 mg/kg/injection, schedule: Q01DX009 (ip), vehicle: saline
[9] = endpoint: mean survival time, dose: 200.0 mg/kg/injection, schedule: Q01DX009 (ip), vehicle: saline
[10] = endpoint: mean survival time, dose: 50.0 mg/kg/injection, schedule: Q01DX009 (ip), vehicle: saline with Tween-80
[11] = endpoint: mean survival time, dose: 100.0 mg/kg/injection, schedule: Q04DX003 (ip), vehicle: saline with Tween-80
[12] = endpoint: mean survival time, dose: 200.0 mg/kg/injection, schedule: Q04DX003 (ip), vehicle: saline with Tween-80

Measured: T/C

Nc1ncnc(N2C(=S)OC3C(O)C(CO)OC32)c1N (stereo not given)
inactive: endpoint: mean survival time, dose: 12.5 mg/kg/injection, schedule: Q01DX005 (ip), vehicle: water 92 % of control | endpoint: mean survival time, dose: 25.0 mg/kg/injection, schedule: Q01DX005 (ip), vehicle: water 88 % of control | endpoint: mean survival time, dose: 50.0 mg/kg/injection, schedule: Q01DX005 (ip), vehicle: water 95 % of control | endpoint: mean survival time, dose: 100.0 mg/kg/injection, schedule: Q01DX005 (ip), vehicle: water 95 % of control | endpoint: mean survival time, dose: 200.0 mg/kg/injection, schedule: Q01DX005 (ip), vehicle: water 90 % of control

C1OC1CO[C@@H]1CO[C@H]2[C@@H]1OC[C@H]2OCC1CO1 (stereo not given in full)
inactive: endpoint: mean survival time, dose: 12.5 mg/kg/injection, schedule: Q01DX009 (ip), vehicle: suspension in saline 100 % of control

c1ccc(CN(c2ccccc2)C2CCCCC2)cc1
inactive: [1] 91 % of control | [2] 91 % of control

O=C(C[P+](c1ccccc1)(c1ccccc1)c1ccccc1)c1ccccc1
inactive: endpoint: mean survival time, dose: 25.0 mg/kg/injection, schedule: Q01DX001 (ip), vehicle: Klucel (hydroxypropylcellulose) (HPC) 107 % of control | endpoint: mean survival time, dose: 50.0 mg/kg/injection, schedule: Q01DX001 (ip), vehicle: Klucel (hydroxypropylcellulose) (HPC) 107 % of control | endpoint: mean survival time, dose: 100.0 mg/kg/injection, schedule: Q01DX001 (ip), vehicle: Klucel (hydroxypropylcellulose) (HPC) 96 % of control | [3] 103 % of control | [4] 97 % of control | [5] 103 % of control

CC(=O)NC(C=O)OCC=O (stereo not given)
inactive: endpoint: median survival time, dose: 6.0 mg/kg/injection, schedule: Q01DX009 (ip), vehicle: water 100 % of control | endpoint: median survival time, dose: 6.25 mg/kg/injection, schedule: Q01DX009 (ip), vehicle: water 105 % of control | endpoint: median survival time, dose: 12.0 mg/kg/injection, schedule: Q01DX009 (ip), vehicle: water 103 % of control | endpoint: median survival time, dose: 12.5 mg/kg/injection, schedule: Q01DX009 (ip), vehicle: water 105 % of control | endpoint: median survival time, dose: 25.0 mg/kg/injection, schedule: Q01DX009 (ip), vehicle: water 105 % of control and 108 % of control | endpoint: median survival time, dose: 50.0 mg/kg/injection, schedule: Q01DX009 (ip), vehicle: water 102 % of control and 108 % of control | endpoint: median survival time, dose: 100.0 mg/kg/injection, schedule: Q01DX009 (ip), vehicle: water 116 % of control and 111 % of control | endpoint: median survival time, dose: 200.0 mg/kg/injection, schedule: Q01DX009 (ip), vehicle: water 115 % of control and 108 % of control

O=C(O)CS(=O)(=O)CC(=O)O
inactive: endpoint: mean survival time, dose: 25.0 mg/kg/injection, schedule: Q01DX001 (ip), vehicle: saline with Tween-80 93 % of control | endpoint: mean survival time, dose: 50.0 mg/kg/injection, schedule: Q01DX001 (ip), vehicle: saline with Tween-80 104 % of control | [6] 90 % of control | [7] 102 % of control | [8] 89 % of control | [9] 93 % of control

Nc1ccn(C2OC(C(OC3OC(CO)C(O)C(N)C3O)C(O)C(O)C(O)C(O)CO)C(N)C(O)C2O)c(=O)n1 (stereo not given)
inactive: endpoint: mean survival time, dose: 0.1 mg/kg/injection, schedule: Q01DX005 (ip), vehicle: saline 104 % of control | endpoint: mean survival time, dose: 0.2 mg/kg/injection, schedule: Q01DX005 (ip), vehicle: saline 102 % of control | endpoint: mean survival time, dose: 0.4 mg/kg/injection, schedule: Q01DX005 (ip), vehicle: saline 101 % of control

O=C(Nc1c(Cl)cccc1Cl)OCCOc1ccccc1Cl
inactive: [10] 98 % of control | [3] 98 % of control | [4] 98 % of control

O=[N+]([O-])c1ccc(F)cc1
inactive: endpoint: mean survival time, dose: 10.0 mg/kg/injection, schedule: Q04DX003 (ip), vehicle: saline 104 % of control | endpoint: mean survival time, dose: 20.0 mg/kg/injection, schedule: Q04DX003 (ip), vehicle: saline 102 % of control | endpoint: mean survival time, dose: 40.0 mg/kg/injection, schedule: Q04DX003 (ip), vehicle: saline 102 % of control

COC(=O)C(Br)C(OC)c1ccc(C)cc1 (stereo not given)
inactive: [3] 94 % of control | endpoint: mean survival time, dose: 100.0 mg/kg/injection, schedule: Q04DX003 (ip), vehicle: saline sonified 95 % of control | [4] 96 % of control | endpoint: mean survival time, dose: 200.0 mg/kg/injection, schedule: Q04DX003 (ip), vehicle: saline sonified 91 % of control | [5] 90 % of control | endpoint: mean survival time, dose: 400.0 mg/kg/injection, schedule: Q04DX003 (ip), vehicle: saline sonified 101 % of control

C=CCCCCCCCCC(=O)N1CCOCC1
inactive: endpoint: mean survival time, dose: 100.0 mg/kg/injection, schedule: Q04DX002 (ip), vehicle: saline 97 % of control

NC(N)=NCCCC(NC(c1ccccc1)(c1ccccc1)c1ccccc1)C(=O)O (stereo not given)
inactive: endpoint: mean survival time, dose: 100.0 mg/kg/injection, schedule: Q01DX001 (ip), vehicle: saline 88 % of control | endpoint: mean survival time, dose: 200.0 mg/kg/injection, schedule: Q01DX001 (ip), vehicle: saline 92 % of control | endpoint: mean survival time, dose: 400.0 mg/kg/injection, schedule: Q01DX001 (ip), vehicle: saline 98 % of control

C/C(=N\Nc1ccc2ccccc2n1)c1ccccc1O
inactive: endpoint: mean survival time, dose: 100.0 mg/kg/injection, schedule: Q04DX002 (ip), vehicle: saline with Tween-80 98 % of control | endpoint: mean survival time, dose: 200.0 mg/kg/injection, schedule: Q04DX002 (ip), vehicle: saline with Tween-80 98 % of control | endpoint: mean survival time, dose: 400.0 mg/kg/injection, schedule: Q04DX002 (ip), vehicle: saline with Tween-80 110 % of control

Cc1ccc(N=Nc2ccc(N(C)C)cc2)c2cccnc12
inactive: [3] 104 % of control

O=C(O)C1CCCN1C(=O)C(CSC(c1ccccc1)(c1ccccc1)c1ccccc1)NC(c1ccccc1)(c1ccccc1)c1ccccc1 (stereo not given)
inactive: [6] 101 % of control | [8] 97 % of control | [9] 98 % of control | endpoint: mean survival time, dose: 400.0 mg/kg/injection, schedule: Q01DX009 (ip), vehicle: saline 97 % of control

CCN(CC)CC(COC)Oc1cc(C)ccc1C(C)C (stereo not given)
inactive: [1] 92 % of control | [2] 93 % of control

CSc1ncc(Br)c(Sc2nc(N)nc3nc[nH]c23)n1
inactive: endpoint: mean survival time, dose: 2.2 mg/kg/injection, schedule: Q01DX001 (ip), vehicle: saline with Tween-80 123 % of control | endpoint: mean survival time, dose: 3.0 mg/kg/injection, schedule: Q01DX001 (ip), vehicle: saline with Tween-80 117 % of control | endpoint: mean survival time, dose: 3.4 mg/kg/injection, schedule: Q01DX001 (ip), vehicle: saline with Tween-80 123 % of control | endpoint: mean survival time, dose: 4.4 mg/kg/injection, schedule: Q01DX001 (ip), vehicle: saline with Tween-80 122 % of control

c1ccc2cc(OCCOCCOc3ccc4ccccc4c3)ccc2c1
inactive: [7] 103 % of control | endpoint: mean survival time, dose: 200.0 mg/kg/injection, schedule: Q01DX001 (ip), vehicle: saline with Tween-80 100 % of control | endpoint: mean survival time, dose: 400.0 mg/kg/injection, schedule: Q01DX001 (ip), vehicle: saline with Tween-80 97 % of control

O=C(O)/C=C/C(=O)Nc1cccc2ccccc12
inactive: [10] 105 % of control | [3] 100 % of control | [11] 95 % of control | [4] 89 % of control | [12] 105 % of control

CCCSC(=O)Nc1cccc(OC(=O)NC)c1
inactive: [11] 99 % of control | [12] 94 % of control | endpoint: mean survival time, dose: 400.0 mg/kg/injection, schedule: Q04DX003 (ip), vehicle: saline with Tween-80 99 % of control

NC1(CO)COC(c2ccccc2)OC1 (stereo not given)
inactive: endpoint: mean survival time, dose: 25.0 mg/kg/injection, schedule: Q01DX009 (ip), vehicle: saline 93 % of control | [6] 96 % of control | [8] 96 % of control
